Experimental data taken from US10800732B2, “Substituted malonamides and their use as antibacterial drugs” (National Taiwan University, priority 2015, dated 2020).
Converted amounts (≈) assume the structure as drawn. Like-named read-outs stand apart in the source and are kept apart here.

Legend:
[1] = system: S. epidermidis ATCC 12228; experiment: MIC, S. epidermidis ATCC 12228; type: cell-based; conditions: S. epidermidis ATCC 12228
MRSA ATCC 49476 = experiment: MIC, MRSA ATCC 49476; type: cell-based, methicillin-resistant Staphylococcus aureus; conditions: MRSA ATCC 49476
[2] = system: Escherichia coli ATCC 25922; experiment: MIC, Escherichia coli; type: cell-based; conditions: ATCC25922
[3] = system: Salmonella Typhimurium ATCC 14028; experiment: MIC, Salmonella Typhimurium; type: cell-based; conditions: Salmonella enterica
[4] = system: Acinetobacter baumannii BCRC 80276; experiment: MIC, Acinetobacter baumannii; type: cell-based; conditions: BCRC80276
MSSA ATCC 29213 = experiment: MIC, MSSA ATCC 29213; type: cell-based, Staphylococcus aureus; conditions: Table 6
MRSA (ATCC 43300) [5] = experiment: Minimal biofilm eradication concentration, MRSA in the biofilm; type: cell-based, methicillin-resistant Staphylococcus aureus; conditions: MRSA (ATCC 43300) in the biofilm
Method: A biofilm is composed of attached microorganisms enclosed in an extracellular polymeric substance matrix. Bacteria embedded in the biofilm are protected from antibiotic-mediated killing and the immune response. Reports have shown that biofilm formation is an important factor contributing to S. aureus infections of the skin, lung and indwelling medical devices such as catheters. Thus, the effect of SC5005 on MRSA in a biofilm was assayed.

MRSA (ATCC 43300) [6] = experiment: MIC, MRSA ATCC 43300; type: cell-based, methicillin-resistant Staphylococcus aureus; conditions: MRSA (ATCC 43300)
S. aureus NCTC 8325 [7] = experiment: Biosynthesis of macromolecules (3H precursor incorporation); type: cell-based, Staphylococcus aureus; conditions: 4×MIC for 1 h
Method: FIG. 5. Effect of SC5005 and SC5035 on the biosynthesis of macromolecules in S. aureus. […] Meanwhile, ofloxacin (1 mg/L), rifampicin (1 mg/L), erythromycin (2 mg/L), and vancomycin (2 mg/L) were used as control inhibitors for the biosynthesis of DNA, RNA, protein and cell wall, respectively. Data are means of three independent experiments. Error bars represent the SD.
To investigate the mode of action of SC5005, a new derivative, SC5035, with better selectivity of antibacterial activity over cytotoxicity was included in the assays. First, the impacts of these two compounds on the biosynthesis of important macromolecules, including DNA, RNA, protein and cell wall, in S. aureus NCTC 8325 were assessed. Bacteria cells were incubated with [^3H]thymidine to assess DNA synthesis, [^3H] uridine to assess RNA synthesis, [^3H] leucine to assess protein synthesis, and [^3H] N-Acetyl-D-glucosamine to assess cell wall synthesis. The ofloxacin, rifampicin, erythromycin and vancomycin were used as control inhibitor for DNA, RNA, protein, and cell wall biosynthesis, respectively. Inhibition of biosynthesis pathway was determined by a reduction in the radial isotope signal of bacteria.

S. aureus NCTC 8325 [8] = experiment: Intracellular ATP leakage (ATPlite one-step); type: cell-based, Staphylococcus aureus; conditions: 4×MIC for 15 min
Method: FIG. 6. Intracellular ATP leakage of S. aureus treated with SC5005, SC5035 and antibiotics. […] Data was presented as percentage of intracellular ATP level to that of untreated bacteria cells (considered as 100%). Bars represent the mean, and error bars represent the SD (n=3). ***: p-value <0.001
To investigate whether SC5005 and SC5035 also act on bacterial cell membrane, intracellular ATP levels of S. aureus treated with SC5005, SC5035 and antibiotics for 15 min was determined by using ATPlite one-step assay kit.

S. aureus NCTC 8325 [9] = experiment: Membrane integrity (SYTO 9 / propidium iodide staining); type: cell-based, Staphylococcus aureus; conditions: 4×MIC (Triton X-100: 10%) for 15 minutes
Description: FIG. 7. Membrane integrity of S. aureus after SC5005, SC5035 and five common antibiotics treatment. […] SYTO 9, a green fluorescence dye, stains chromosome of all bacteria cells, regardless of the membrane integrity. In contrast, propidium iodide (PI), a red fluorescence dye, only stains cell with damaged membrane. Thus, bacteria cell with intact membrane can only be stained by SYTO 9, and cell with perforated membrane will be stained by both fluorescence dyes, showing a yellow color in merged images.
To further validate the action mechanism of SC5005 and SC5035, two fluorescence dyes were used for evaluation of membrane integrity of drug treated S. aureus. The propidium iodide dye only stains cells with perforated membrane, while the SYTO 9 stains all cells in spite of membrane integrity.

S. aureus NCTC 8325 [10] = experiment: Transmission electron microscopy of cell membrane; type: cell-based, Staphylococcus aureus; conditions: 15 min treatment, 100,000 magnifications
Method: FIG. 8. Transmission electron microscopy image of S. aureus after SC5005 treatment. S. aureus NCTC 8325 was treated with (A) mock or (B) SC5005 for 15 min followed by glutaraldehyde (2.5%) fixation and osimium tetraoxide (1%) staining. The membrane integrity was then observed with transmission electron microscopy at 100,000× magnification. The outer black ring marked with CW represents cell wall, and the inner black ring marked with CM represents cell membrane. The arrow points the pore formed in S. aureus cell membrane.
To investigate how SC5005 changes membrane permeability of S. aureus, bacteria cells were treated with SC5005 for 15 min followed by glutaraldehyde (2.5%) fixation and osimium tetraoxide (1%) staining. The membrane of bacteria was then observed by Transmission electron microscopy (TEM) at 100,000 magnifications (FIG. 8). The outer clear black circle is cell wall of S. aureus, and the inner clear black circle is cell membrane of S. aureus. These two circles of control treated S. aureus remain intact, and the cell membrane is undamaged.

human red blood cells = experiment: Hemolytic activity; type: cell-based
Method: FIG. 9. Hemolytic activities of SC5005 and SC5035 on human red blood cell. Human red blood cells were incubated with SC5005 (A) and SC5035 (B) for 1 h followed by measuring the absorption of RBC released hemoglobin at 540 nm with microplate reader. Cell treated with 1% triton X-100 serves as positive control (P.C.; 100% hemolysis), and those treated with normal saline serves as negative control (N.C.) Bars represent the mean, and error bars represent the SD (n=3).
As data shown above, SC5005 and SC5035 can kill bacteria via forming pore in bacterial membrane. To see whether the pore-forming activity of these two compounds is specific for bacterial membrane, the hemolytic activities of these two agents on human red blood cells were accessed.

MRSA (ATCC 33592) = experiment: Survival of MRSA-infected C57BL/6 mice, intraperitoneal administration; conditions: surviving mice, 10 mg/kg
Method: (A) Effect of intraperitoneal administration of SC5005 on the survival of MRSA-infected mice. Female C57BL/6 mice were inoculated intraperitoneally with 5×10^4 CFU of MRSA (ATCC 33592). Infected mice received intraperitoneal injection of 1 mg/kg (filled inverted triangles), 3 mg/kg (filled triangles) and 10 mg/kg (filled squares) SC5005 or vehicle (mock) (filled circles) once per day for three consecutive days. Survival rates, as represented by Kaplan-Meier curves, are shown for the mock and SC5005 treatment groups. *P<0.05, for the difference between treated groups and the control group. (B) Body weight changes in individual vehicle or SC5005-treated MRSA-infected mice. Each line represents an individual mouse. The black lines indicate mice that survived until the end of the study and the grey lines indicate mice that were euthanized during the study.
To further evaluate the therapeutic potential of SC5005 against MRSA infection, inbred C57BL/6 mice were intraperitoneally injected with a lethal dose (5×10^4 CFU) of MRSA (ATCC 33592), followed by intraperitoneal administration of vehicle control or SC5005 (1 mg/kg, 3 mg/kg or 10 mg/kg) at 1 h, 24 h and 48 h post-infection (N=5 for each group).

Compound	MIC ([1]; Staphylococcus epidermidis, ATCC12228, read-out: MIC) [µg/mL]	MIC (MRSA ATCC 49476; Staphylococcus aureus, read-out: MIC) [µg/mL]	MIC [2] [µg/mL]	MIC [3] [µg/mL]	MIC [4] [µg/mL]	MIC [1] [µg/mL]	MIC (MRSA ATCC 49476) [µg/mL]	MIC (MSSA ATCC 29213) [µg/mL]	MBEC (MRSA (ATCC 43300) [5]) [mg/L]	MIC (MRSA (ATCC 43300) [6]) [µg/mL]	incorporation signal in DNA, RNA, protein and cell wall biosynthesis (S. aureus NCTC 8325 [7])	intracellular ATP levels (S. aureus NCTC 8325 [8])	propidium iodide staining (membrane integrity) (S. aureus NCTC 8325 [9])	pore formation in cell membrane (TEM) (S. aureus NCTC 8325 [10])	hemolysis of RBC (human red blood cells)	time for body weight to return to pre-infection levels (MRSA (ATCC 33592)) [days]
O=C(Nc1ccc(Cl)c(C(F)(F)F)c1)Nc1ccc(Cl)c(C(F)(F)F)c1 [SC78]	0.25 (≈ 0.599 µM)	25 (≈ 59.9 µM)	> 64	> 64	> 64											
O=C(Nc1ccc(Cl)c(C(F)(F)F)c1)C(CCCl)C(=O)Nc1ccc(Cl)c(C(F)(F)F)c1 [SC5005]						0.5 (≈ 0.958 µM)	0.5 (≈ 0.958 µM)	0.5 (≈ 0.958 µM)	16	0.5 (≈ 0.958 µM)	lower signal in all four macromolecule biosynthesis pathway	significantly dropped	can be stained by propidium iodide	a pore was observed in the membrane of most bacteria cells	no significant hemolysis	2 to 5
